Measured values as given in the NIST ThermoML archive (doi:10.1016/j.tca.2007.07.008).
Numbers after ± are expanded uncertainties.

Key:
[1] = for mass density: 298.15 K, 101.33 kPa, Liquid, Vibrating tube method
[2] = refractive index (Na D-line) (dimensionless); settings: 298.15 K; 101.33 kPa; Liquid; Standard Abbe refractometry

| Compound | mass density [1] [kg/m3] | refractive index [2] | Normal melting temperature ([1]; Crystal) [°C] |
| --- | --- | --- | --- |
| CC(=O)N(C)C [N,N-dimethylethanamide] | 936.5 ± 0.1 | 1.436 ± 0.0007 | – |
| CN1C(=O)N(C)C2C1N(C)C(=O)N2C (stereo unspecified) [1,3,4,6-tetramethylglycoluril] | – | – | 228 ± 4 |
| CC(C)=O [acetone] | 784.65 ± 0.16 | 1.3563 ± 0.0007 | – |

Further lines, with some results ahead:

| mass density [1] [kg/m3] | refractive index [2] | Compound | Normal melting temperature ([1]; Crystal) [°C] |
| --- | --- | --- | --- |
| 1129.15 ± 0.2 | 1.4465 ± 0.0007 | NC=O [formamide] | – |
| 998.92 ± 0.3 | 1.4308 ± 0.0008 | CNC=O [N-methylformamide] | – |
| 943.93 ± 0.13 | 1.4276 ± 0.0007 | CN(C)C=O [dimethylformamide] | – |
